Results as given in ChEMBL document CHEMBL1201862, “PubChem BioAssay data set” (2004).
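Cultured in 96-well plates, cells were exposed to test compound for 48 hours across five concentrations. Here, GI50 denotes the concentration required for 50% inhibition of growth.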 Calls of active or inactive are those of the source. No stated cut-off is given here; in the data, active = GI50 up to about 1.1 µM and inactive = higher.

Legend:
Assay in all cases: inhibition of tumour cell growth, NCI panel, 48 h
[1] = test system: MDA-MB-231
[2] = test system: SK-MEL-28
[3] = test system: SF-539
[4] = test system: CCRF-CEM
[5] = test system: KM12
[6] = test system: SF-295
[7] = test system: A549
[8] = test system: RPMI-8226
[9] = test system: DU-145
[10] = test system: ACHN
[11] = test system: SK-OV-3
[12] = test system: SNB-75
[13] = test system: K562
[14] = test system: UO-31
[15] = test system: HT-29
[16] = test system: HOP-62
[17] = test system: M14
[18] = test system: OVCAR-4
[19] = test system: SW-620
[20] = test system: SK-MEL-2

SMILES | GI50 [1] | GI50 [2] | GI50 [3] | GI50 [4] | GI50 [5] | GI50 [6] | GI50 [7] | GI50 [8] | GI50 [9] | GI50 [10] | GI50 [11] | GI50 [12] | GI50 [13] | GI50 [14] | GI50 [15] | GI50 [16] | GI50 [17] | GI50 [18] | GI50 [19] | GI50 [20]
CC(C)(C)COS(=O)OCC(C)(C)C | > 100 µM (inactive) | > 100 µM (inactive) | > 100 µM (inactive) | > 100 µM (inactive) | > 100 µM (inactive) | > 100 µM (inactive) | > 100 µM (inactive) | > 100 µM (inactive) | > 100 µM (inactive) | > 100 µM (inactive) | > 100 µM (inactive) | > 100 µM (inactive) | > 100 µM (inactive) | > 100 µM (inactive) | > 100 µM (inactive) | > 100 µM (inactive) | > 100 µM (inactive) | > 100 µM (inactive) | > 100 µM (inactive) | > 100 µM (inactive)
CC(=O)NC(CS)C(=O)O (stereo not given) | 11300 µM (inactive) | 19900 µM (inactive) | 26100 µM (inactive) | > 100 µM (inactive) | 33300 µM (inactive) | 14600 µM (inactive) | 15700 µM (inactive) | 746 µM (inactive) | 21400 µM (inactive) | 16600 µM (inactive) | 44200 µM (inactive) | 10700 µM (inactive) | 21700 µM (inactive) | 7640 µM (inactive) | 14700 µM (inactive) | 12800 µM (inactive) | 7360 µM (inactive) | 50900 µM (inactive) | 11000 µM (inactive) | 18500 µM (inactive)
O=C(NC(=O)c1c(F)cccc1F)Nc1cccc(Oc2ncc(Cl)cn2)c1 | > 71.6 µM (inactive) | > 100 µM (inactive) | 23.3 µM (inactive) | 47.1 µM (inactive) | 1.4 µM (inactive) | 32.3 µM (inactive) | > 39.9 µM (inactive) | > 94.8 µM (inactive) | > 100 µM (inactive) | 99.3 µM (inactive) | 19.3 µM (inactive) | 19.5 µM (inactive) | 3.1 µM (inactive) | > 100 µM (inactive) | 4.59 µM (inactive) | 29.6 µM (inactive) | > 51.2 µM (inactive) | > 69 µM (inactive) | 4.3 µM (inactive) | > 51.6 µM (inactive)
Cc1n[nH]c(=O)n1/N=C/c1cccs1 | > 100 µM (inactive) | > 100 µM (inactive) | > 100 µM (inactive) | > 100 µM (inactive) | > 100 µM (inactive) | > 100 µM (inactive) | > 100 µM (inactive) | > 100 µM (inactive) | > 100 µM (inactive) | > 100 µM (inactive) | > 100 µM (inactive) | > 100 µM (inactive) | > 100 µM (inactive) | > 100 µM (inactive) | > 100 µM (inactive) | > 100 µM (inactive) | > 100 µM (inactive) | > 100 µM (inactive) | > 100 µM (inactive) | > 100 µM (inactive)
CCOC(=O)CCC(NC(=O)c1ccc(Oc2nc3ccc(C(F)(F)F)cc3nc2-c2ccccc2)cc1)C(=O)OCC (stereo not given) | 8.13 µM (inactive) | > 100 µM (inactive) | 3.01 µM (inactive) | > 100 µM (inactive) | 11.2 µM (inactive) | 12.2 µM (inactive) | 24.2 µM (inactive) | > 100 µM (inactive) | > 100 µM (inactive) | 5.61 µM (inactive) | 15 µM (inactive) | 9.46 µM (inactive) | > 100 µM (inactive) | 20.6 µM (inactive) | 5.15 µM (inactive) | 4.82 µM (inactive) | 67.6 µM (inactive) | 6.22 µM (inactive) | > 100 µM (inactive) | 22.8 µM (inactive)
CCOP(=O)(OCC)/C(C#N)=C(\C)c1ccco1 | > 10 µM (inactive) | > 10 µM (inactive) | > 10 µM (inactive) | > 10 µM (inactive) | > 10 µM (inactive) | > 10 µM (inactive) | > 10 µM (inactive) | > 10 µM (inactive) | > 10 µM (inactive) | > 10 µM (inactive) | > 10 µM (inactive) | > 10 µM (inactive) | > 10 µM (inactive) | > 10 µM (inactive) | > 10 µM (inactive) | > 10 µM (inactive) | > 10 µM (inactive) | > 10 µM (inactive) | > 10 µM (inactive) | > 10 µM (inactive)
O=C(ON=c1c2ccccc2ccc2ccccc12)c1ccccc1 | 22.9 µM (inactive) | 29.8 µM (inactive) | 15.5 µM (inactive) | 18.8 µM (inactive) | 11.8 µM (inactive) | 35.7 µM (inactive) | 29.7 µM (inactive) | 24.4 µM (inactive) | 42.2 µM (inactive) | 34.9 µM (inactive) | 56 µM (inactive) | 26.5 µM (inactive) | 8.81 µM (inactive) | 25.5 µM (inactive) | 28.2 µM (inactive) | 22 µM (inactive) | 18.1 µM (inactive) | 28 µM (inactive) | 18.1 µM (inactive) | 30.1 µM (inactive)
COC(=O)[C@H]1[C@H](C(=O)OC)[C@@H](C)c2c(ccc3c2[nH]c2ccccc23)[C@@H]1C | 25.6 µM (inactive) | > 100 µM (inactive) | > 100 µM (inactive) | 22.4 µM (inactive) | 32.9 µM (inactive) | 18.6 µM (inactive) | 31.1 µM (inactive) | 11.8 µM (inactive) | 41.5 µM (inactive) | 44.5 µM (inactive) | 92.9 µM (inactive) | 19.7 µM (inactive) | 0.9 µM (active) | > 100 µM (inactive) | 19.1 µM (inactive) | 35.6 µM (inactive) | 24.2 µM (inactive) | 38.9 µM (inactive) | 95.1 µM (inactive) | 34.1 µM (inactive)
S=C(Nc1cccc(C2(N3CCCCC3)CCCCC2)c1)Nc1cccc(C2(N3CCCCC3)CCCCC2)c1 | 15.6 µM (inactive) | 17.9 µM (inactive) | 15.3 µM (inactive) | 13.6 µM (inactive) | 16 µM (inactive) | 37.8 µM (inactive) | 31.6 µM (inactive) | 10.6 µM (inactive) | 27.3 µM (inactive) | 23.9 µM (inactive) | > 100 µM (inactive) | 12.9 µM (inactive) | 11.2 µM (inactive) | 16.9 µM (inactive) | 19.4 µM (inactive) | 39.2 µM (inactive) | 18.7 µM (inactive) | 35.6 µM (inactive) | 37.8 µM (inactive) | 18.4 µM (inactive)
OC(c1ccc(F)cc1)(c1ccc(F)cc1)C1CC1 | 36.1 µM (inactive) | 30 µM (inactive) | 33.3 µM (inactive) | 24.8 µM (inactive) | 26.7 µM (inactive) | 27.9 µM (inactive) | 26.6 µM (inactive) | 26.9 µM (inactive) | 49.9 µM (inactive) | 30.1 µM (inactive) | 37.9 µM (inactive) | 50.6 µM (inactive) | 31.4 µM (inactive) | 21.3 µM (inactive) | 21.5 µM (inactive) | 65.9 µM (inactive) | 21.5 µM (inactive) | 26.2 µM (inactive) | 25.6 µM (inactive) | 16.1 µM (inactive)
CN(C)c1ccc(/C=C(\NC(=O)c2ccccc2)C(=O)NC(CCC(=O)O)C(=O)O)cc1 (stereo not given) | > 100 µM (inactive) | > 100 µM (inactive) | > 100 µM (inactive) | > 100 µM (inactive) | > 100 µM (inactive) | > 100 µM (inactive) | > 100 µM (inactive) | > 100 µM (inactive) | > 100 µM (inactive) | > 100 µM (inactive) | > 100 µM (inactive) | > 100 µM (inactive) | > 100 µM (inactive) | > 100 µM (inactive) | > 100 µM (inactive) | > 100 µM (inactive) | > 100 µM (inactive) | > 100 µM (inactive) | > 100 µM (inactive) | > 100 µM (inactive)
CCOc1cc2oc(C)cc(=O)c2c(OC)c1/C=N/c1ccc(Cn2c(C)nc3ccccc32)cc1 | > 100 µM (inactive) | > 100 µM (inactive) | > 100 µM (inactive) | > 100 µM (inactive) | > 100 µM (inactive) | > 100 µM (inactive) | > 100 µM (inactive) | > 100 µM (inactive) | > 100 µM (inactive) | > 100 µM (inactive) | > 100 µM (inactive) | > 100 µM (inactive) | > 100 µM (inactive) | > 100 µM (inactive) | > 100 µM (inactive) | > 100 µM (inactive) | > 100 µM (inactive) | > 100 µM (inactive) | > 100 µM (inactive) | > 100 µM (inactive)
Cn1ccnc1CCc1ccc(F)cc1F | > 100 µM (inactive) | > 100 µM (inactive) | > 100 µM (inactive) | > 100 µM (inactive) | > 100 µM (inactive) | > 100 µM (inactive) | > 100 µM (inactive) | > 100 µM (inactive) | > 100 µM (inactive) | > 100 µM (inactive) | > 100 µM (inactive) | > 100 µM (inactive) | > 100 µM (inactive) | > 100 µM (inactive) | > 100 µM (inactive) | > 100 µM (inactive) | > 100 µM (inactive) | > 100 µM (inactive) | > 100 µM (inactive) | > 100 µM (inactive)
N=C(N)N/N=C/c1c(-c2ccc(Cl)cc2)nc2sccn12 | 2.77 µM (inactive) | 1.85 µM (inactive) | 1.83 µM (inactive) | 1.79 µM (inactive) | 1.96 µM (inactive) | 1.64 µM (inactive) | 1.64 µM (inactive) | 2.61 µM (inactive) | 3.34 µM (inactive) | 1.5 µM (inactive) | 2.66 µM (inactive) | 1.77 µM (inactive) | 2.18 µM (inactive) | 2.48 µM (inactive) | 1.69 µM (inactive) | 1.79 µM (inactive) | 1.63 µM (inactive) | 2.06 µM (inactive) | 1.55 µM (inactive) | 1.95 µM (inactive)
